Ends that are not written are not given here.
Tests used:
C57BL/6J-DIO mice = assay: intraperitoneal glucose tolerance test in DIO mice; type: in vivo, mouse; conditions: for efficacy in ipGTT eight hours post-drug administration (in words): C57BL/6J-DIO mice, single dose 2.4 nmol/kg
[1] = tested on: lean C57BL/6J, GLP-1R+/+ and GLP-1R-/- mice; assay: single intracerebroventricular injection: food consumption and body weight; conditions: lean mice, single ICV 0.025 nmol, up to 72 h
human GLP-1R = human GLP-1R (Homo sapiens, UniProt P43220); assay: receptor internalization (Nano-Glo HiBiT), human GLP-1R; type: cell-based; design: host or cells: HEK293
human GLP-1R, sequence (P43220 24-463): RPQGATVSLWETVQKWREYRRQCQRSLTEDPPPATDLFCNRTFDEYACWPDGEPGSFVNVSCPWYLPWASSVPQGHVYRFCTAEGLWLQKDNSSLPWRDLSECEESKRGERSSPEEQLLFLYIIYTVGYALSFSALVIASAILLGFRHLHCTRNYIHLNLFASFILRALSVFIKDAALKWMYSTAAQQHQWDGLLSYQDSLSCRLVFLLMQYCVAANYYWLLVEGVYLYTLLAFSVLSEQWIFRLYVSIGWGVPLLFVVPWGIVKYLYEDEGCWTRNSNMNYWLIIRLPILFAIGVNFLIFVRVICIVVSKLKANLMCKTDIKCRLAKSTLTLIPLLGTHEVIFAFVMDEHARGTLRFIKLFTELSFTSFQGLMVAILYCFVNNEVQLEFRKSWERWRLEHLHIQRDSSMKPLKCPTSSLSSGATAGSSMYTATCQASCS
Description: GLP-1R and GIPR internalization were measured using Promega's Nano-Glo® HiBit extracellular detection system (Promega Corporation; Madison, WI). Hek293 cells were transiently transfected with HiBiT-tagged hGLP-1R or hGIPR plasmids (Promega Corporation; Madison, WI). Cells were lifted using the TrypLE express enzyme (ThermoFisher Scientific) and plated at 80,000-100,000 cells per well in 96 well plates. Cells were then treated with Nano-Glo HibiT extracellular buffer containing LgBiT protein (1:100), and the Nano-Glo HiBiT extracellular substrate (1:50).
GLP-1R and GIPR internalization was measured using Promega's Nano-Glo® HiBit extracellular detection system (Promega Corporation; Madison, WI). HEK293 cells were transiently transfected with low quantities of HiBiT-tagged hGLP-1R or hGIPR plasmids (Promega Corporation; Madison, WI). The next day, cells were lifted using TrypLE express enzyme (ThermoFisher Scientific) and plated at 80,000-100,000 cells per well in 96 well plates.

[2] = pharmacokinetics in CD-1 mice, single SC injection; conditions: 1 mg/kg SC
Description: Blood was kept on ice until centrifuged at 4600 rpm for five minutes at 4° C. Plasma was stored at −80° C. until analysis. Compounds were extracted from plasma and quantified against a standard curve using an AB Sciex 7500+LC-MS/MS system (FIG. 5).

[3] = tested on: participants with obesity and participants with T2DM; assay: CT-868-003 crossover study: safety; type: in vivo, human; conditions: in vivo
Description: Safety assessments of this study included treatment-emergent adverse events (TEAEs), serious adverse events (SAEs), adverse events of special interest (AESI), vital signs, 12-lead electrocardiogram (ECG), clinical lab evaluations, and physical exam.
Safety assessments which occurred throughout the entire study, included monitoring of incidence and severity of AEs, treatment-emergent AEs (TEAEs) and AEs of special interest (AESIs) (e.g., GI events, hypoglycemia), clinical laboratory abnormalities (ECGs, chemistry, hematology, and urinalysis), and changes in vital sign measurements (BP, heart rate, respiratory rate, and aural temperature).
AE terms recorded by the Investigator were coded to system organ class (SOC) and preferred term (PT) using the Medical Dictionary for Regulatory Activities (MedDRA) version 24.0. Severity was collected using the Common Terminology Criteria for AEs (CTCAE) version 5.0 Toxicity Grade. Events with missing severity were summarized as Grade 3. TEAEs summarized by severity counted each participant once for the maximum severity within each SOC and PT within each in-house treatment period and overall. TEAEs marked with a relationship to study treatment as definitely, probable, possible, or missing were considered as related TEAEs. Events with missing relationship to study treatment were summarized as related. The number and percentage of participants with TEAEs were summarized by MedDRA-coded SOCs and PTs.

For Exendin-4 [Ex-4, reference compound], the “efficacy in ipGTT eight hours post-drug administration (in words)” value (C57BL/6J-DIO mice) was “no longer effective”, the “food consumption and body weight after ICV injection (in words)” value (“food consumption and body weight” for short) [1] was “started to lose efficacy by 48 hours” and the “food consumption and body weight” value ([1]; listed as exendin-4) was “significant reduction of cumulative food consumption”.
For “FG-EGT-FTS-DLS-KQM-EEE-AVR-LFI-EWL-LAG-GPS-SGA-PPPS-NH2 (FGEGTFTSDLSKQMEEEAVRLFIEWLLAGGPSSGAPPPS-NH2) [Ex-Phe1, reference compound]”, the “glucose tolerance and body weight vs exendin-4 (in words)” value (C57BL/6J-DIO mice) was “improves glucose tolerance and decreases body weight more than exendin-4”, the “efficacy in ipGTT eight hours post-drug administration (in words)” value (C57BL/6J-DIO mice) was “remained efficacious” and the “signalling profile at GLP-1R (in words)” value (human GLP-1R) was “cAMP-biased agonist that prevents receptor internalization”. For the same molecule, the “food consumption and body weight” value [1] was “remained efficacious” and the “food consumption and body weight” value ([1]; listed as exendin-Phe1) was “greater reduction of food intake and much more prolonged body weight reduction as compared to exendin-4”.
With `CCCCCCCCCCCCCCCC(=O)N[C@@H](CCC(=O)NCCCC[C@H](NC(=O)[C@H](C)NC(=O)[C@H](C)NC(=O)[C@H](CCC(N)=O)NC(=O)CNC(=O)[C@H](CCC(=O)O)NC(=O)[C@H](CC(C)C)NC(=O)[C@H](Cc1ccc(O)cc1)NC(=O)[C@H](CO)NC(=O)[C@H](CO)NC(=O)[C@@H](NC(=O)[C@H](CC(=O)O)NC(=O)[C@H](CO)NC(=O)[C@@H](NC(=O)[C@H](Cc1ccccc1)NC(=O)[C@@H](NC(=O)CNC(=O)[C@H](CCC(=O)O)NC(=O)[C@H](C)NC(=O)[C@@H](N)Cc1cnc[nH]1)[C@@H](C)O)[C@@H](C)O)C(C)C)C(=O)N[C@@H](CCC(=O)O)C(=O)N[C@@H](Cc1ccccc1)C(=O)N[C@H](C(=O)N[C@@H](C)C(=O)N[C@@H](Cc1c[nH]c2ccccc12)C(=O)N[C@@H](CC(C)C)C(=O)N[C@H](C(=O)N[C@@H](CCCNC(=N)N)C(=O)NCC(=O)N[C@@H](CCCNC(=N)N)C(=O)NCC(=O)O)C(C)C)[C@@H](C)CC)C(=O)O` [liraglutide, Liraglutide, reference compound] the “times more exposure than CT-859” value [2] was 6 times, the “AEs of Special Interest (AESI) Total” value [3] was 4 (40.0) n (%) and the Abdominal pain [3] was 0 n (%). For the same molecule, the Anaemia [3] was 0 n (%), the “Any AESIs, Grade 2” value [3] was 1 (25.0%) n (%) and the Arthralgia [3] was 0 n (%). The “At Least 1 Study Drug Related TEAE” value [3] was 3 (30.0) n (%), the “At Least 1 TEAE” value [3] was 7 (70.0) n (%) and the Back pain [3] was 0 n (%). For the same molecule, the “Blood and lymphatic system disorders” value [3] was 0 n (%), the Chills [3] was 0 n (%) and the Coagulation test abnormal [3] was 0 n (%). For the same molecule, the Constipation [3] was 0 n (%), the Decreased appetite [3] was 0 n (%) and the Diarrhoea [3] was 0 n (%). The Dizziness [3] was 0 n (%), the Eructation [3] was 0 n (%) and the Gastroesophageal reflux disease [3] was 0 n (%). The “General disorders and administration site conditions” value [3] was 0 n (%), the Headache [3] was 0 n (%) and the Hypoglycemia [3] was 3 (30.0) n (%). For the same molecule, the Infections and infestations [3] was 0 n (%), the “Injection Site Reaction” value [3] was 0 n (%) and the Injection site haemorrhage [3] was 0 n (%). For the same molecule, the Injection site reactions [3] was 0 n (%), the Investigations [3] was 0 n (%) and the “Musculoskeletal and connective tissue disorders” value [3] was 0 n (%). For the same molecule, the Nervous system disorders [3] was 0 n (%), the Peripheral swelling [3] was 0 n (%) and the Rash [3] was 0 n (%). The SAEs [3] was 0 n (%), the Skin hyperpigmentation [3] was 0 n (%) and the “TEAEs leading to drug discontinuation” value [3] was 0 n (%). The “Treatment Discontinuation” value [3] was 0 n (%), the Urinary tract infection [3] was 0 n (%) and the Vomiting [3] was 0 n (%). For the same molecule, the “participants with Grade 1 hypoglycemia events” value [3] was 3 participants.
